Results published in article PMC6416464 (Drug Metabolism Letters, 2018).

Tests used:
[1] = Metabolic stability, incubation with human liver cytosol; assay type: in vitro ADME; details: 1 µM test compound, 1 mg/mL protein
rCYP3A4 = rCYP3A4 (Homo sapiens, UniProt P08684); details: human, pH 7.4
CYP3A4 [2] = molecular target: T1, CYP3A4 (Homo sapiens, UniProt P08684); test: in vitro; details: microsomes, pH 7.4, % Inhibition of Control Activity CYP3A4 (substrate, testosterone)
CYP3A4 [3] = molecular target: T1, CYP3A4; test: in vitro; details: microsomes, pH 7.4
[4] = Metabolic stability, incubation with human liver microsomes; details: 1 µM test compound, 0.5 mg/mL protein
CYP1A2 = molecular target: T2, CYP1A2 (Homo sapiens, UniProt P05177); test: CYP inhibition in human liver microsomes, CYP1A2; details: inhibitor 10 µM; HLM; NI: No Inhibitin; 10 µM
T2 sequence (P05177 1-516): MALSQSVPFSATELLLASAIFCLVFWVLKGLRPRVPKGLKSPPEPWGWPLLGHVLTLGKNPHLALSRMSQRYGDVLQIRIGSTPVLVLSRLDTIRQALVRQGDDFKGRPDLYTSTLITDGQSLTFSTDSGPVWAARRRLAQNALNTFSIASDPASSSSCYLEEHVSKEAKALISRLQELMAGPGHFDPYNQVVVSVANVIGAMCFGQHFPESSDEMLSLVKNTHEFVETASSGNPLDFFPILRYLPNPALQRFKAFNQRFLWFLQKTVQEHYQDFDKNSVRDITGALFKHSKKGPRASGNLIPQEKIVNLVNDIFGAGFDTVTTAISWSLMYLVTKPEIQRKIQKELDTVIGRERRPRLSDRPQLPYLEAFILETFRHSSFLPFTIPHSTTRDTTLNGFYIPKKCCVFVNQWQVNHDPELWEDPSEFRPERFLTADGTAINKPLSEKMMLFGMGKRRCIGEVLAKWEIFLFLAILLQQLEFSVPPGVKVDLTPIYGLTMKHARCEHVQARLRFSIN

CYP2C8 = molecular target: T3, CYP2C8 (Homo sapiens, UniProt P10632); test: CYP inhibition in human liver microsomes, CYP2C8; details: human, human liver microsomes, pH 7.4, probe paclitaxel
T3 sequence (P10632 1-490): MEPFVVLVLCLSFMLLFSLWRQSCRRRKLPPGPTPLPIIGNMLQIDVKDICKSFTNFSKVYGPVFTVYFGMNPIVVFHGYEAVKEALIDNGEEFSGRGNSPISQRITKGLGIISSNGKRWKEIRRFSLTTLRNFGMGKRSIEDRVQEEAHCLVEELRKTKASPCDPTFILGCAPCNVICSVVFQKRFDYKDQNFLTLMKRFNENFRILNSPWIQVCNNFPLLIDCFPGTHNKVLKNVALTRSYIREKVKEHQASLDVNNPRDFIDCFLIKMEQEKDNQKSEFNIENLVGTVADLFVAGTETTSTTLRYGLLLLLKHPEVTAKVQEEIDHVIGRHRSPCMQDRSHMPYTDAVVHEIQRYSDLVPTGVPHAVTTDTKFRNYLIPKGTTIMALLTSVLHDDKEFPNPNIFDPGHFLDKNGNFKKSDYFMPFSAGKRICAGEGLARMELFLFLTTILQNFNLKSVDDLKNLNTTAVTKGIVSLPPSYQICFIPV

CYP2C9 = CYP2C9 (Homo sapiens, UniProt P11712); test: CYP inhibition in human liver microsomes, CYP2C9
Chain of CYP2C9 (P11712 whole entry): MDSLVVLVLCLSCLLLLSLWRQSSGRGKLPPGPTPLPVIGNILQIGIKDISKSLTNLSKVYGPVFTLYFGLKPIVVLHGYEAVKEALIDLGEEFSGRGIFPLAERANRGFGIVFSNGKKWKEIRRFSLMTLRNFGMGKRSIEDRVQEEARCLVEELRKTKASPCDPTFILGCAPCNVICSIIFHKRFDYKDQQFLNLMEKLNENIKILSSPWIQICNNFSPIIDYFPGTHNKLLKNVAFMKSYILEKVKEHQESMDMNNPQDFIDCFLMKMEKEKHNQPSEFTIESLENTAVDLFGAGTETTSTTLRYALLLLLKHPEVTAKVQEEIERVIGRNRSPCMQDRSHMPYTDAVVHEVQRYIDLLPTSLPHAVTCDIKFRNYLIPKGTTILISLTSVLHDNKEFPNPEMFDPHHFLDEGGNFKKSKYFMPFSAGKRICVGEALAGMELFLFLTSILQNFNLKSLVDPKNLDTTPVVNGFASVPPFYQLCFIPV

CYP2C19 = CYP2C19 (Homo sapiens, UniProt P33261); test: CYP inhibition in human liver microsomes, CYP2C19; details: inhibitor 10 µM; HLM; NI: No Inhibitin; 10 µM
Chain of CYP2C19 (P33261 whole entry): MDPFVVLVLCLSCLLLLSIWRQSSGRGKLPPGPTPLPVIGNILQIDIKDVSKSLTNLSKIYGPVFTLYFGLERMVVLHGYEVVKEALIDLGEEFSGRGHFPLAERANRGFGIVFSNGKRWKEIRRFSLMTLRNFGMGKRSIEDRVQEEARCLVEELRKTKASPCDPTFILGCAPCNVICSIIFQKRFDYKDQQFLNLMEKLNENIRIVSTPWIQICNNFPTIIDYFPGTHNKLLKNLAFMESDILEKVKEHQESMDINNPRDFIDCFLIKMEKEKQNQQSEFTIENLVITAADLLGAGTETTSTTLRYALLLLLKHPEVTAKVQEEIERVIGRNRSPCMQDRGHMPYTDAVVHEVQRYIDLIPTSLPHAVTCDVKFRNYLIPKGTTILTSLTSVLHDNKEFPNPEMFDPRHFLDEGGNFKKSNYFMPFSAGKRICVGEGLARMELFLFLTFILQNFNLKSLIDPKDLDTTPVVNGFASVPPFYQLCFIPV

rCYP1A2 = molecular target: T4, rCYP1A2 (Homo sapiens, UniProt P05177); test: Metabolic stability / reaction phenotyping with recombinant human CYP1A2
T4 sequence (P05177 1-516): T2 sequence (P05177 1-516)

rCYP2C8 = molecular target: T5, rCYP2C8 (Homo sapiens, UniProt P10632); test: Metabolic stability / reaction phenotyping with recombinant human CYP2C8
T5 sequence (P10632 1-490): T3 sequence (P10632 1-490)

rCYP2C9 = rCYP2C9 (Homo sapiens, UniProt P11712); test: Metabolic stability / reaction phenotyping with recombinant human CYP2C9
Chain of rCYP2C9 (P11712 whole entry): as the sequence (P11712 whole entry) above

rCYP2D6 = rCYP2D6 (Homo sapiens, UniProt P10635); test: Metabolic stability / reaction phenotyping with recombinant human CYP2D6
Chain of rCYP2D6 (P10635 whole entry): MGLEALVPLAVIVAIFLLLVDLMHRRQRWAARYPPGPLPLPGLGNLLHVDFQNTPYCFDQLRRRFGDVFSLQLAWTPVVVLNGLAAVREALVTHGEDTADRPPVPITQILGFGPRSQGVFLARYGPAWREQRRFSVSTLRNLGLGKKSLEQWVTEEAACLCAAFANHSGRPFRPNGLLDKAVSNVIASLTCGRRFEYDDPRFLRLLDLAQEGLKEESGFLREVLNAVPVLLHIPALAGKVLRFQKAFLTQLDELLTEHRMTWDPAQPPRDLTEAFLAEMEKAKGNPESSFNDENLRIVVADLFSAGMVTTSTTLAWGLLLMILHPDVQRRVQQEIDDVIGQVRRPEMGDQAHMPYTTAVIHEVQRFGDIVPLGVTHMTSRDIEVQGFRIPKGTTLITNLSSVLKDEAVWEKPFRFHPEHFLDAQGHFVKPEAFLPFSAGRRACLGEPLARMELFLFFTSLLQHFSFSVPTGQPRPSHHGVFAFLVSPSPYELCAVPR

rCYP2C19 = rCYP2C19 (Homo sapiens, UniProt P33261); test: Metabolic stability / reaction phenotyping with recombinant human CYP2C19; details: 1 µM test compound; 100 pmol/mL; 30 min
Chain of rCYP2C19 (P33261 whole entry): as the sequence (P33261 whole entry) above

[5] = 1 µM test compound, 100 pmol/mL, 30 min
[6] = human, recombinant human CYP1A2, 1 µM, pH 7.4
[7] = human, recombinant human CYP2C8, 1 µM, pH 7.4
[8] = human, recombinant human CYP2C9, 1 µM, pH 7.4
[9] = human, recombinant human CYP2D6, 1 µM, pH 7.4

Chain of rCYP3A4 (P08684 whole entry): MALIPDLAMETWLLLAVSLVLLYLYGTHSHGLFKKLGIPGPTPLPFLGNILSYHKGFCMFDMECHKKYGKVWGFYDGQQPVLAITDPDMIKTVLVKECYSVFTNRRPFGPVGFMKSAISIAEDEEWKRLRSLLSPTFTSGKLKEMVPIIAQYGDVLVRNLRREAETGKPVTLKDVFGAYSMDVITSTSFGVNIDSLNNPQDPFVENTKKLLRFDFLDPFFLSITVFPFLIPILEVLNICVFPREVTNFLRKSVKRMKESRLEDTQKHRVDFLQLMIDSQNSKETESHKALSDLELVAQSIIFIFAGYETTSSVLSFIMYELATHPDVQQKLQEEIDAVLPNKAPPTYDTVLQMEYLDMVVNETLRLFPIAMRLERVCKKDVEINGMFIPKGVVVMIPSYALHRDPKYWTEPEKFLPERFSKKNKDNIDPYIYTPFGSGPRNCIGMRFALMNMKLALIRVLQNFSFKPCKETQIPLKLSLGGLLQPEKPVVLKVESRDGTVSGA
T1 sequence (P08684 2-503): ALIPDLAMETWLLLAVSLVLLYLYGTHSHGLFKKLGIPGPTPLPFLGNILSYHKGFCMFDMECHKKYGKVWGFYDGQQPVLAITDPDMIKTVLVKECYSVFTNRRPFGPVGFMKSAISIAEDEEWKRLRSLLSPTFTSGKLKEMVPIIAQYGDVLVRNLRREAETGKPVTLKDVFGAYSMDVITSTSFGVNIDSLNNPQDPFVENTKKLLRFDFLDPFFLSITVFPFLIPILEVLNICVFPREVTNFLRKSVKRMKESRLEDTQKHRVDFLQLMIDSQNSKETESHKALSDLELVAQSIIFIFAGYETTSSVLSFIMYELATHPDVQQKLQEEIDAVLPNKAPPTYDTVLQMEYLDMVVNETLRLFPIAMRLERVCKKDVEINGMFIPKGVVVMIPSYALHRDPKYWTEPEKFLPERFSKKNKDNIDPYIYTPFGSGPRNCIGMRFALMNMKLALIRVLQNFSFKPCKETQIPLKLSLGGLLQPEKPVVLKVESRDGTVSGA

SMILES: CC(C)(O)c1ccccc1CC[C@@H](SCC1(CC(=O)O)CC1)c1cccc(/C=C/c2ccc3ccc(Cl)cc3n2)c1 [Montelukast, montelukast, reference compound]
- % Metabolized at 30 min Incubation with Human Liver Fractions/Enzymes Cytosol [1]: 10.13%
- Predicted Microsomal Clint, CYP3A4 (rCYP3A4): 19.054 µL/min/mg Protein
- % Metabolized at 30 min Incubation with Human Liver Fractions/Enzymes rCYP3A4 (rCYP3A4; recombinant enzyme, 0.5 h): 40.25%
- % Contribution of CYP Enzymes (fmCYP) in Metabolism, CYP3A4 (rCYP3A4; recombinant enzyme): 47.07%
- rCYP Clint, CYP3A4 (rCYP3A4; recombinant enzyme): 0.172 µL/min/pmol
- inhibition at 2 µM (CYP3A4 [2]): 0.79%
- inhibition at 10 µM (CYP3A4 [2]): 11.2%
- inhibition at 2 µM (CYP3A4 [3]): 20%
- inhibition at 10 µM (CYP3A4 [3]): 48%
- % Metabolized at 30 min Incubation with Human Liver Fractions/Enzymes HLM [4]: 25.71%
- % Inhibition of Control Activity CYP1A2 (CYP1A2): 24.96%
- inhibition at 2 µM (CYP2C8): 93.7%
- inhibition at 10 µM (CYP2C8): 97.3%
- IC50 (CYP2C9): 1340 nM
- % Inhibition of Control Activity CYP2C19 (CYP2C19): 22.70%
- % Metabolized at 30 min Incubation with Human Liver Fractions/Enzymes rCYP1A2 (rCYP1A2; [5]): 9.37%
- % Contribution of CYP Enzymes (fmCYP) in Metabolism, CYP1A2 (rCYP1A2; [6]): 4.21%
- Predicted Microsomal Clint, CYP1A2 (rCYP1A2; [6]): 1.705 µL/min/mg Protein
- rCYP Clint, CYP1A2 (rCYP1A2; [6]): 0.033 µL/min/pmol
- % Metabolized at 30 min Incubation with Human Liver Fractions/Enzymes rCYP2C8 (rCYP2C8; [5]): 52.29%
- % Contribution of CYP Enzymes (fmCYP) in Metabolism, CYP2C8 (rCYP2C8; [7]): 39.00%
- Predicted Microsomal Clint, CYP2C8 (rCYP2C8; [7]): 15.789 µL/min/mg Protein
- rCYP Clint, CYP2C8 (rCYP2C8; [7]): 0.247 µL/min/pmol
- % Metabolized at 30 min Incubation with Human Liver Fractions/Enzymes rCYP2C9 (rCYP2C9; [5]): 10.85%
- % Contribution of CYP Enzymes (fmCYP) in Metabolism, CYP2C9 (rCYP2C9; [8]): 9.08%
- Predicted Microsomal Clint, CYP2C9 (rCYP2C9; [8]): 3.675 µL/min/mg Protein
- rCYP Clint, CYP2C9 (rCYP2C9; [8]): 0.038 µL/min/pmol
- % Metabolized at 30 min Incubation with Human Liver Fractions/Enzymes rCYP2D6 (rCYP2D6; [5]): 7.46%
- % Contribution of CYP Enzymes (fmCYP) in Metabolism, CYP2D6 (rCYP2D6; [9]): 0.64%
- Predicted Microsomal Clint, CYP2D6 (rCYP2D6; [9]): 0.258 µL/min/mg Protein
- rCYP Clint, CYP2D6 (rCYP2D6; [9]): 0.026 µL/min/pmol
- % Metabolized at 30 min Incubation with Human Liver Fractions/Enzymes rCYP2C19 (rCYP2C19): 0.00%
